In assay [1] the target is YES1 kinase (Homo sapiens, UniProt P07947). Briefly: YES1 kinase inhibition, ADP Glo assay (Promega). The following applies: for inhibition at 0.01 µM: compound 10 nM, read-out: YES1 enzyme, % inhibition, 10 nM; for inhibition at 0.1 µM: compound 100 nM, read-out: YES1 enzyme, % inhibition, 100 nM; for YES1 kinase inhibition at 1 nM (in words) / inhibition at 0.001 µM: compound 1 nM; for inhibition at 0.001 µM: read-out: YES1 enzyme, % inhibition, 1 nM; for IC50: class symbols, read-out: YES1 enzyme, IC50. The assay is classed as biochemical. An outline of the steps:
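YES1 kinase was preincubated 10 min with compound in Mn2+/DTT-containing kinase buffer, then reacted 40 min at room temperature with ATP/substrate; ADP was detected by ADP-Glo luminescence. Activity, background-subtracted and normalised to negative control, is given as % inhibition at 1, 10 and 100 nM, plus IC50.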

Assay [2] deals with KYSE-70 esophageal cancer cell line. Description: Cell growth inhibition of KYSE-70 (Sulforhodamine B). The class given is cell-based. The following applies: Homo sapiens; KYSE-70, 72 hours; read-out: KYSE70 GI50. An outline of the steps: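 KYSE-70 cells (YES1-amplified) in RPMI-1640 with 10% FBS were seeded 24 h before treatment with compound at 0.0046–10 µM final. After 72 h, cells were TCA-fixed and stained with sulforhodamine B, with absorbance read at 510 nm. GI50 was derived with a time-zero plate set to 0% and the vehicle control to 100%, in duplicate tests.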

Some results are limits rather than exact numbers.

Sequence of YES1 kinase (P07947 whole entry): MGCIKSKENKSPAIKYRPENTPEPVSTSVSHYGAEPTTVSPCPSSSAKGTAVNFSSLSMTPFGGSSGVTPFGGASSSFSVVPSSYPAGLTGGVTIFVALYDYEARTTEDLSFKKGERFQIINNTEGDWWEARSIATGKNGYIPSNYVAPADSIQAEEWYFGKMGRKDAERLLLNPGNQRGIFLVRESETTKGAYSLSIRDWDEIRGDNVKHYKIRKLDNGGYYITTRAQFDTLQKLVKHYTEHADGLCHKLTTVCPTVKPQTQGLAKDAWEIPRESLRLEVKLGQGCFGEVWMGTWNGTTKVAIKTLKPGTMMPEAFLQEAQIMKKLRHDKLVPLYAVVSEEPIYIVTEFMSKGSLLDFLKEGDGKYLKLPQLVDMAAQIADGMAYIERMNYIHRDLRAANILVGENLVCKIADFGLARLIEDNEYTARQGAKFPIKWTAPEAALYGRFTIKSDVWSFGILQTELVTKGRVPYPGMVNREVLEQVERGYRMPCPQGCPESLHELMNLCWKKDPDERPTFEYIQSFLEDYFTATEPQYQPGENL

What is called inhibition is the percentage by which the read-out fell short of the control. For orientation: GI50 means the concentration at which growth is held to half of that of the control. For `COc1cc(-c2cc(N3CCC4C(CCN4C)C3)n3ncnc(N)c23)ccc1NC(=O)OC(C)(C)C` (stereo not drawn) [Example 26, tert-butyl (4-(4-amino-7-(1-methyloctahydro-5H-pyrrolo[3,2-c]pyridin-5-yl)pyrrolo[2,1-f][1,2,4]triazin-5-yl)-2-methoxyphenyl)carbamate], in assay [1], the inhibition at 0.01 µM worked out at 30% and the inhibition at 0.1 µM was found to be 69%. For the same molecule, the GI50 in assay [2] was 1000 to 10000 nM.

Turning to `COc1cc(-c2cc(N3CCC(C(=O)O)CC3)n3ncnc(N)c23)ccc1NC(=O)OC(C)(C)C` [Example 89, 1-(4-amino-5-(4-((tert-butoxycarbonyl)amino)-3-methoxyphenyl)pyrrolo[2,1-f][1,2,4]triazin-7-yl)piperidine-4-carboxylic acid], in assay [1], the “YES1 kinase inhibition at 1 nM (in words)” value is reported as “could be inhibited even at a low concentration of 1 nM”, the inhibition at 0.001 µM turned out to be 19% and the inhibition at 0.01 µM is 34%. Besides, in assay [2], the GI50 is greater than 10000 nM.

`COc1cc(-c2cc(N3CCC4(CC3)CN(C)C4)n3ncnc(N)c23)ccc1NC(=O)OC(C)(C)C` [Example 21, tert-butyl (4-(4-amino-7-(2-methyl-2,7-diazaspiro[3.5]nonan-7-yl)pyrrolo[2,1-f][1,2,4]triazin-5-yl)-2-methoxyphenyl)carbamate]: in assay [1], the inhibition at 0.01 µM came out at 67% and the inhibition at 0.1 µM came out at 92%. For the same molecule, in assay [2], the GI50 was in the range of 100 to 1000 nM.

As for `COc1cc(-c2cc(N3CCC(C(C)(C)N)CC3)n3ncnc(N)c23)ccc1NC(=O)OC(C)(C)C` [Example 106, tert-butyl (4-(4-amino-7-(4-(2-aminopropan-2-yl)piperidin-1-yl)pyrrolo[2,1-f][1,2,4]triazin-5-yl)-2-methoxyphenyl)carbamate], in assay [1], the inhibition at 0.001 µM came to 37% and the inhibition at 0.01 µM was determined as 43%. In assay [2], the GI50 was no more than 100 nM.

Consider `COc1cc(-c2cc(N3CC4(CCN(C)CC4)C3)n3ncnc(N)c23)ccc1NC(=O)OC(C)(C)C` [Example 38, tert-butyl (4-(4-amino-7-(7-methyl-2,7-diazaspiro[3.5]nonan-2-yl)pyrrolo[2,1-f][1,2,4]triazin-5-yl)-2-methoxyphenyl)carbamate], for which, in assay [1], the inhibition at 0.01 µM was found to be 44% and the inhibition at 0.1 µM is 80%. For the same molecule, the GI50 in assay [2] was no more than 100 nM.

By IC50 is commonly meant the concentration that inhibits the measured activity by half. As to `CN[C@@H]1CCN(c2cc(-c3ccc(NC(=O)OC(C)(C)C)c(OC)c3)c3c(N)ncnn23)C[C@@H]1F` [Example 87, tert-butyl (4-(4-amino-7-((3S,4R)-3-fluoro-4-(methylamino)piperidin-1-yl)pyrrolo[2,1-f][1,2,4]triazin-5-yl)-2-methoxyphenyl)carbamate], in assay [1], the IC50 is no more than 100 nM, the inhibition at 0.01 µM is 61% and the inhibition at 0.1 µM came out at 80%. Also, the GI50 in assay [2] was no more than 100 nM.

As to `COc1cc(-c2cc(N3CCC(NC(C)=O)CC3)n3ncnc(N)c23)ccc1NC(=O)OC(C)(C)C` [Example 103, tert-butyl (4-(7-(4-acetamidopiperidin-1-yl)-4-aminopyrrolo[2,1-f][1,2,4]triazin-5-yl)-2-methoxyphenyl)carbamate], in assay [1], the inhibition at 0.01 µM worked out at 27% and the inhibition at 0.1 µM amounted to 66%. Also, the GI50 in assay [2] lay in the range of 100 to 1000 nM.

As for `COc1cc(-c2cc(N3CCC4(CC3)CNC(=O)C4)n3ncnc(N)c23)ccc1NC(=O)OC(C)(C)C` [Example 52, tert-butyl (4-(4-amino-7-(3-oxo-2,8-diazaspiro[4.5]decan-8-yl)pyrrolo[2,1-f][1,2,4]triazin-5-yl)-2-methoxyphenyl)carbamate], in assay [1], the IC50 was no more than 100 nM, the inhibition at 0.01 µM was 60% and the inhibition at 0.1 µM turned out to be 90%. In assay [2], the GI50 lay in the range of 100 to 1000 nM.

Consider `COc1cc(-c2cc(N3CCC(N)CC3)n3ncnc(N)c23)ccc1NC(=O)c1ccoc1` [Example 138, N-(4-(4-amino-7-(4-aminopiperidin-1-yl)pyrrolo[2,1-f][1,2,4]triazin-5-yl)-2-methoxyphenyl)furan-3-carboxamide], for which the IC50 in assay [1] is no more than 100 nM. Also, in assay [2], the GI50 is greater than 10000 nM.

For the molecule `COc1cc(-c2cc(N3CCC(N)(C(F)(F)F)CC3)n3ncnc(N)c23)ccc1NC(=O)OC(C)(C)C` [Example 83, tert-butyl (4-(4-amino-7-(4-amino-4-(trifluoromethyl)piperidin-1-yl)pyrrolo[2,1-f][1,2,4]triazin-5-yl)-2-methoxyphenyl)carbamate], in assay [1], the “YES1 kinase inhibition at 1 nM (in words)” value is given as “could be inhibited even at a low concentration of 1 nM”, the inhibition at 0.001 µM is 14% and the inhibition at 0.01 µM stood at 24%. Further, the GI50 in assay [2] fell in the range of 100 to 1000 nM.

As to `COc1cc(-c2cc(N3CC[C@@H](N(C)C)C3)n3ncnc(N)c23)ccc1NC(=O)OC(C)(C)C` [Example 10, tert-butyl (R)-(4-(4-amino-7-(3-(dimethylamino)pyrrolidin-1-yl)pyrrolo[2,1-f][1,2,4]triazin-5-yl)-2-methoxyphenyl)carbamate], in assay [1], the inhibition at 0.01 µM came out at 8% and the inhibition at 0.1 µM amounted to 38%. For the same molecule, in assay [2], the GI50 is 1000 to 10000 nM.

Take `COc1cc(-c2cc(N[C@H]3CC[C@@H](N)CC3)n3ncnc(N)c23)ccc1NC(=O)OC(C)(C)C` [Example 121, tert-butyl (4-(4-amino-7-(((1s,4s)-4-aminocyclohexyl)amino)pyrrolo[2,1-f][1,2,4]triazin-5-yl)-2-methoxyphenyl)carbamate]: in assay [1], the inhibition at 0.01 µM worked out at 50% and the inhibition at 0.1 µM turned out to be 77%. Also, in assay [2], the GI50 lay in the range of 100 to 1000 nM.

Turning to `COc1cc(-c2cc(N3CC4(CC(N(C)C)C4)C3)n3ncnc(N)c23)ccc1NC(=O)OC(C)(C)C` [Example 18, tert-butyl (4-(4-amino-7-(6-(dimethylamino)-2-azaspiro[3.3]heptan-2-yl)pyrrolo[2,1-f][1,2,4]triazin-5-yl)-2-methoxyphenyl)carbamate], in assay [1], the inhibition at 0.01 µM is 39% and the inhibition at 0.1 µM was found to be 81%. Moreover, the GI50 in assay [2] fell in the range of 100 to 1000 nM.

As to `COc1cc(-c2cc(N3CCC(N)C(C)(C)C3)n3ncnc(N)c23)ccc1NC(=O)OC(C)(C)C` (stereo not drawn) [Example 94, tert-butyl (4-(4-amino-7-(4-amino-3,3-dimethylpiperidin-1-yl)pyrrolo[2,1-f][1,2,4]triazin-5-yl)-2-methoxyphenyl)carbamate], in assay [1], the IC50 is no more than 100 nM, the inhibition at 0.01 µM came to 41% and the inhibition at 0.1 µM is 78%. Besides, in assay [2], the GI50 is no more than 100 nM.

For the molecule `COc1cc(-c2cc(N3CC4CC3CC4N)n3ncnc(N)c23)ccc1NC(=O)OC(C)(C)C` (stereo not drawn) [Example 51, tert-butyl (4-(4-amino-7-(5-amino-2-azabicyclo[2.2.1]heptan-2-yl)pyrrolo[2,1-f][1,2,4]triazin-5-yl)-2-methoxyphenyl)carbamate], in assay [1], the inhibition at 0.01 µM was found to be 70% and the inhibition at 0.1 µM turned out to be 90%. In addition, the GI50 in assay [2] was in the range of 100 to 1000 nM.

Turning to `COc1cc(-c2c(F)c(N3CCC(N(C)C)CC3)n3ncnc(N)c23)ccc1NC(=O)OC(C)(C)C` [Example 128, tert-butyl (4-(4-amino-7-(4-(dimethylamino)piperidin-1-yl)-6-fluoropyrrolo[2,1-f][1,2,4]triazin-5-yl)-2-methoxyphenyl)carbamate], in assay [1], the IC50 is no more than 100 nM, the inhibition at 0.01 µM was 72% and the inhibition at 0.1 µM turned out to be 92%. For the same molecule, the GI50 in assay [2] was no more than 100 nM.

As to `COc1cc(-c2cc(N3CCC4(CC3)CNC4=O)n3ncnc(N)c23)ccc1NC(=O)OC(C)(C)C` [Example 55, tert-butyl (4-(4-amino-7-(1-oxo-2,7-diazaspiro[3.5]nonan-7-yl)pyrrolo[2,1-f][1,2,4]triazin-5-yl)-2-methoxyphenyl)carbamate], in assay [1], the inhibition at 0.01 µM stood at 40% and the inhibition at 0.1 µM was determined as 76%. Besides, in assay [2], the GI50 is no more than 100 nM.

`COc1cc(-c2cc(N3CCC4NCCC4C3)n3ncnc(N)c23)ccc1NC(=O)OC(C)(C)C` (stereo not drawn) [Example 25, tert-butyl (4-(4-amino-7-(octahydro-5H-pyrrolo[3,2-c]pyridin-5-yl)pyrrolo[2,1-f][1,2,4]triazin-5-yl)-2-methoxyphenyl)carbamate]: in assay [1], the inhibition at 0.01 µM amounted to 28% and the inhibition at 0.1 µM was found to be 76%. Besides, the GI50 in assay [2] fell in the range of 100 to 1000 nM.

On to `COc1cc(-c2cc(-c3ccc4c(c3)OCC(=O)N4C)n3ncnc(N)c23)ccc1NC(=O)OC(C)(C)C` [Example 8, tert-butyl (4-(4-amino-7-(4-methyl-3-oxo-3,4-dihydro-2H-benzo[b][1,4]oxazin-7-yl)pyrrolo[2,1-f][1,2,4]triazin-5-yl)-2-methoxyphenyl)carbamate], for which, in assay [1], the inhibition at 0.01 µM was determined as 33% and the inhibition at 0.1 µM amounted to 64%. In addition, the GI50 in assay [2] is greater than 10000 nM.

Take `COc1cc(-c2cc(N3CC[C@@H](N(C)C)[C@@H](F)C3)n3ncnc(N)c23)ccc1NC(=O)OC(C)(C)C` [Example 30, tert-butyl (4-(4-amino-7-((3S,4R)-4-(dimethylamino)-3-fluoropiperidin-1-yl)pyrrolo[2,1-f][1,2,4]triazin-5-yl)-2-methoxyphenyl)carbamate]: in assay [1], the inhibition at 0.01 µM was 73% and the inhibition at 0.1 µM was 94%. Besides, the GI50 in assay [2] is no more than 100 nM.

Regarding `COc1cc(-c2c(F)c(N3CCC(N)CC3)n3ncnc(N)c23)ccc1NC(=O)OC(C)(C)C` [Example 127, tert-butyl (4-(4-amino-7-(4-aminopiperidin-1-yl)-6-fluoropyrrolo[2,1-f][1,2,4]triazin-5-yl)-2-methoxyphenyl)carbamate], in assay [1], the half-inhibitory concentration (IC50) is no more than 100 nM, the inhibition at 0.01 µM amounted to 67% and the inhibition at 0.1 µM turned out to be 88%. Moreover, the GI50 in assay [2] was no more than 100 nM.
